Data set [1] relates to ovarian cancer. Particulars: with standard chemotherapy regimen; cited from earlier work.
Data set [2] has as its system advanced pancreatic cancer. Conditions: dalteparin added to gemcitabine; cited from earlier work.
In data set [3] the test system is advanced prostate, lung, or pancreatic cancer. Conditions: added to existing standard of care protocols; cited from earlier work.
Data set [4] has as its system acute myeloid leukemia (AML). Briefly: single arm open-label clinical study of ODSH with idarubicin + cytarabine induction (NCT02056782). Type of data set: in vivo, human. Here is the method:
A single arm open-label clinical study was conducted at multiple trial sites (University of Utah, Georgia Regents University, and Medical University of South Carolina) in patients with newly diagnosed acute myeloid leukemia (AML) to confirm that ODSH could accelerate platelet and white blood cell (WBC) recovery in patients receiving induction chemotherapy with a regimen known to have myelosuppressive side effects.
All patients received the following standard (“7+3”) induction regimen, • Idarubicin (12 mg/m^2/day) by short intravenous infusion on Days 1, 2, and 3; and • Cytarabine (100 mg/m^2) as a continuous intravenous infusion over 24 hours (Days 1 through 7).
All patients also received CX-01, a substantially 2-O, 3-O-desulfated heparin derivative (ODSH) as an intravenous bolus immediately after the idarubicin dose on Day 1, at a dose of 4 mg/kg, followed by a continuous intravenous infusion at a dose of 0.25 mg/kg/hr for a total of 7 days (Days 1 through 7).
Twelve patients were enrolled. The median age was 56 (range 22-74). Based on cytogenetic, molecular, or antecedent hematologic disorder, 9 of 12 patients fell into the intermediate or poor risk categories. […] Complete remission at the end of the induction cycle was assessed using International Working Group (IWG) criteria (see, e.g., Cheson et al., J. Clin. Oncol. 21:4642 (2003)).
Platelet, neutrophil, and WBC recovery of the ODSH-treated AML patients was compared with the recovery in historical control patients receiving identical doses of idarubicin and cytarabine as induction therapy in a previous clinical study comparing idarubicin and daunorubicin in combination with cytarabine (Vogler et al., J. Clin. Oncol. 10(7):1103-11(1992)). In the previous study, 101 patients received idarubicin 12 mg/m^2 on days 1, 2, and 3 and cytarabine 100 mg/m^2 on days 1-7. Growth factors were not administered to any patient.

The target in data set [5] is anti-thrombin III (Homo sapiens, UniProt P01008). Briefly: affinity for anti-thrombin III. Conditions: for Kd: measured as described in Rao et al.; for Kd for anti-thrombin III: same Kd as mass concentration. Type of data set: binding.
Sequence of anti-thrombin III (P01008 33-464, species assumed): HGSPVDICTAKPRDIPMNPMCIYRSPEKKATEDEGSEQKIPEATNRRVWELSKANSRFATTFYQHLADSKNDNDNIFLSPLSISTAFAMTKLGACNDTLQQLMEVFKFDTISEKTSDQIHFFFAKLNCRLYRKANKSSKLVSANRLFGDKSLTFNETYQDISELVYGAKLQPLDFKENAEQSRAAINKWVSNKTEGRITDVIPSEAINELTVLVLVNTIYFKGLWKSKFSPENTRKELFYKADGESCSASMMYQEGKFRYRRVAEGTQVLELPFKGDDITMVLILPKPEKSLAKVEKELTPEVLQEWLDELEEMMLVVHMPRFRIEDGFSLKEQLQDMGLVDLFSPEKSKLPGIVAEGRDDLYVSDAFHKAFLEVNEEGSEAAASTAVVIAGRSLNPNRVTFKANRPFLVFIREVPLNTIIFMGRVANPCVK
For data set [6], the system named is bone marrow. Briefly: serial bone marrow biopsies in the AML trial. Type of data set: in vivo, human. Conditions: one patient treated with ODSH, cytarabine and idarubicin; for bone marrow biopsy appearance at Day 14 of the induction cycle: FIG. 2B; for bone marrow biopsy appearance at Day 28: FIG. 2C. From the text: Bone marrow biopsies were obtained in the AML, trial described in Example 1.
FIGS. 2A-2C are photomicrographs of biopsies from one of the patients.

Data set [7] in a line: clotting time in an aPTT assay after administration to a subject. Type of data set: in vivo. Particulars: ODSH at a dose equivalent in weight to a fully-anticoagulating dose of unfractionated heparin; UFH at fully anticoagulant dose; normal about 27 to 35 seconds. From the text: In contrast to unfractionated heparin, ODSH is substantially non-anticoagulating: administered to a subject at a dose that is equivalent in weight to a fully-anticoagulating dose of unfractionated heparin, the clotting time measured in an aPTT assay is no greater than 45 seconds, and typically in the upper range of normal, where normal clotting time ranges from about 27 to 35 seconds. By comparison, unfractionated heparin administered to a subject at a fully anticoagulant dose causes time to clot to range from about 60 to about 85 seconds in an aPTT assay.

Data set [8] in a line: stability testing of CX-01 infusion solutions. Type of data set: physicochemical. Particulars: room temperature; diluted in 0.9% sodium chloride. Here is the method:
Based upon current stability testing data, CX-01 infusion solutions expire at room temperature 72 hours after preparation and should be stored in a refrigerator (2 to 8° C.) until used.

Data set [9] concerns human pancreatic cancer. Particulars: regimen that includes gemcitabine; cited from earlier work.
Data set [10] relates to metastatic adenocarcinoma of the pancreas. Particulars: cited from earlier work.
For data set [11] the following is noted: comparator heparin; Rao et al.; cited from earlier work.
Data set [12] addresses T1, Xa (Homo sapiens, UniProt P00742).
T1 construct: an assay carried out using plasma treated with Russell viper venom; from tissue; host or cells: plasma
Particulars: comparator heparin; Rao et al.; cited from earlier work.

Data set [13] addresses IIa (Homo sapiens, UniProt P00734+P01008). Particulars: comparator heparin; Rao et al.; cited from earlier work.
Data set [14] concerns pancreatic cancer model. Conditions: in vivo; cited from earlier work.
The mark [15] stands for this setting: median follow-up of 14.2 months.
The mark [16] stands for this setting: ODSH added to gemcitabine plus nab-paclitaxel.

“Also recorded” adds a separate entry of the source.

T1 sequence (P01008 33-464 partner): as the sequence (P01008 33-464, species assumed) above
T1 sequence (P00742 235-488 limits assumed): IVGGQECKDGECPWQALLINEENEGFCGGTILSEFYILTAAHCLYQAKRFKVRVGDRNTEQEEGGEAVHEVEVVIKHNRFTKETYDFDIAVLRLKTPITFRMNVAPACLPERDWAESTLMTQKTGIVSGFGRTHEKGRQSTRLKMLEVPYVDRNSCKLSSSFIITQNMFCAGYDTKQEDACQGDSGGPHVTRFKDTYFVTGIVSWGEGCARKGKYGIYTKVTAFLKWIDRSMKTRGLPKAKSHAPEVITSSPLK

Turning to dalteparin, the outcome in data set [1] is reported as “could not be shown to improve outcome”. In addition, the survival entry in [2] is “no statistically significant improvement in survival”.
For the substance nadroparin, in data set [3], the survival benefit entry is “no statistically significant survival benefit”.
For the substance “substantially 2-O, 3-O desulfated heparin [ODSH]”, in data set [4] (5-13 months after having been enrolled in the study), the “patients remaining in complete remission” value is on record as 10 of the 12. Moreover, the “patients with primary AML achieving complete remission at the end of a single induction cycle” value in [4] (11 patients with primary AML) was determined as 11. For the same substance, in data set [4] (AML patients), the “myelosuppressive side effects of the idarubicin+cytarabine regimen” value was “significantly attenuated the myelosuppressive side effects”. For the same substance, in [4] (AML patients, n = 12, 11 out of 12), the “Complete response with first induction cycle (morphologic complete remission, IWG criteria)” value is given as 92%. Further, in data set [4] (setting [15]), the “median OS” value is reported as not below 13.6 months and the “median event free survival” value was 13.5 months. Also, in [4] (six patients who relapsed), the “median time to relapse” value is given as 8 months. In data set [5], the Kd (as a rule, the constant that tells how readily two partners part at equilibrium) is approximately 339 µM and the “Kd for anti-thrombin III” value was approximately 4000 µg/mL. Further, in data set [6], the “bone marrow biopsy appearance at Day 14 of the induction cycle” value is “elimination of most normal bone marrow cells as well as leukemia cells”; the “bone marrow biopsy appearance at Day 28” value was “no evidence of leukemic cells and restoration of normal bone marrow appearance and function”. Also, in data set [6] (listed as CX-01 ODSH), the “bone marrow biopsy appearance at Day 14 of the induction cycle” value is “significant depletion of normal bone marrow cells”; the “bone marrow biopsy appearance at Day 28” value was “no evidence of leukemia and restoration of normal bone marrow appearance and function”. Moreover, in [7], the “clotting time measured in an aPTT assay” value is not above 45 s. For the same substance, in [8], the “expiry of infusion solutions after preparation” value stood at 72 h. The “efficacy of chemotherapy regimen in animal model” value in data set [9] is recorded as “improves the efficacy of a chemotherapy regimen; also recorded: sensitize cancer cells to chemotherapy”. For the same substance, in [10] (setting [16]), the overall survival result is “did not provide a statistically significant increase; also recorded: no statistically significant benefit” and the progression-free survival result is recorded as “did not provide a statistically significant increase; also recorded: no statistically significant benefit”. Also, the “myelosuppressive side effects of the gemcitabine plus nab-paclitaxel regimen” value in [10] (U.S. Pat. No. 8,734,804) is recorded as “attenuate the myelosuppressive side effects”.
Take unfractionated heparin: the “anticoagulant activity in the USP anticoagulant assay” value in [11] is listed as 165-190 U/mg. Further, in data set [5], the Kd is 1.56 µM and the “Kd for anti-thrombin III” value came out at 22 µg/mL. The anti-Xa activity in data set [12] is 165-190 U/mg. The anti-IIa activity in data set [13] was 165-190 U/mg. Also, in data set [14], the potency of gemcitabine entry is “enhances potency of gemcitabine”.

The values above are taken from patent US10052346B2, “Treatment of myelodysplastic syndromes with 2-O and,or 3-O desulfated heparinoids” (Cantex Pharmaceuticals, Inc., priority 2015, dated 2018).
